Measurements as given in patent US10421761B2, “Compounds for kinase modulation, and indications therefor” (Plexxikon Inc., priority 2013, dated 2019).

Tested on: B9 cells
Conditions: Repl. 2; B9 cells

CCCS(=O)(=O)Nc1ccc(F)c(C(=O)c2c[nH]c3ncc(-c4ccc(Cl)cc4)cc23)c1F [vemurafenib]
probe 1430623_s_at response, Obfc2a (oligonucleotide/oligosaccharide-binding fold containing 2A): 1.88
probe 1430700_a_at response, Pla2g7 (phospholipase A2, group VII (platelet-activating factor acetylhydrolase, plasma)): 2.18
probe 1431416_a_at response, Jam2 (junction adhesion molecule 2): 1.93
probe 1431422_a_at response, Dusp14 (dual specificity phosphatase 14): 1.93
probe 1431611_a_at response, Cadm1 (cell adhesion molecule 1): 2.31
probe 1431688_at response, LOC73899 (hypothetical LOC73899): 2.41
probe 1431691_a_at response, Rab31 (RAB31, member RAS oncogene family): 2.04
probe 1433909_at response, Syt17 (synaptotagmin XVII): 2.17
probe 1434059_at response, B230312A22Rik (RIKEN cDNA B230312A22 gene): 2.10
probe 1434092_at response, Atg9b (ATG9 autophagy related 9 homolog B (S. cerevisiae)): 1.89
probe 1434109_at response, Sh3bgrl2 (SH3 domain binding glutamic acid-rich protein like 2): 2.33
probe 1434252_at response, Tmcc3 (transmembrane and coiled coil domains 3): 1.95
probe 1434601_at response, Amigo2 (adhesion molecule with Ig like domain 2): 1.89
probe 1434957_at response, Cdon (cell adhesion molecule-related/down-regulated by oncogenes): 0.46
probe 1435066_at response, Pitpnc1 (phosphatidylinositol transfer protein, cytoplasmic 1): 2.32
probe 1435176_a_at response, Id2 (inhibitor of DNA binding 2): 0.46
probe 1435330_at response, Pyhin1 (pyrin and HIN domain family, member 1): 2.38
probe 1435331_at response, Pyhin1 (pyrin and HIN domain family, member 1): 3.71
probe 1435460_at response, Prkg2 (protein kinase, cGMP-dependent, type II): 1.96
probe 1435695_a_at response, Ggct (gamma-glutamyl cyclotransferase): 2.19
probe 1436100_at response, Sh2d5 (SH2 domain containing 5): 2.35
probe 1436329_at response, Egr3 (early growth response 3): 2.77
probe 1436584_at response, Spry2 (sprouty homolog 2 (Drosophila)): 3.54
probe 1436659_at response, Dclk1 (doublecortin-like kinase 1): 2.37
probe 1436917_s_at response, Gpsm1 (G-protein signalling modulator 1 (AGS3-like, C. elegans)): 1.89
probe 1436944_x_at response, Pisd /// Pisd-ps1 ///Pisd-ps3 (phosphatidylserine decarboxylase /// phosphatidylserine decarboxylase, pseudogene 1 /// phosphatidylserine decarboxylase, pseudogene 3): 0.48
probe 1437092_at response, Clip4 (CAP-GLY domain containing linker protein family, member 4): 2.13
probe 1437100_x_at response, Pim3 (proviral integration site 3): 2.05
probe 1437199_at response: 4.31
probe 1437271_at response, Clcf1 (cardiotrophin-like cytokine factor 1): 1.96
probe 1437486_at response, Gprc5a (G protein-coupled receptor, family C, group 5, member A): 2.08
probe 1437982_x_at response, Cox15 (COX15 homolog, cytochrome c oxidase assembly protein (yeast)): 0.45
probe 1438038_at response, 4930402H24Rik (RIKEN cDNA 4930402H24 gene): 1.93
probe 1438664_at response, Prkar2b (protein kinase, cAMP dependent regulatory, type II beta): 0.49
probe 1438699_at response, Srd5a1 (steroid 5 alpha-reductase 1): 1.87
probe 1439016_x_at response, Sprr2a (small proline-rich protein 2A): 0.42
probe 1439109_at response, Ccdc68 (coiled-coil domain containing 68): 0.50
probe 1439434_x_at response, Sh2d5 (SH2 domain containing 5): 1.91
probe 1439797_at response, Ppard (peroxisome proliferator activator receptor delta): 2.32
probe 1439878_at response, Ivl (involucrin): 2.90
probe 1440169_x_at response, Ifnar2 (interferon (alpha and beta) receptor 2): 0.53
probe 1440559_at response, Hmga2-ps1 (high mobility group AT-hook 2, pseudogene 1): 2.95
probe 1441315_s_at response, Slc19a2 (solute carrier family 19 (thiamine transporter), member 2): 2.18
probe 1441917_s_at response, Tmem40 (transmembrane protein 40): 2.11
probe 1442350_at response: 2.13
probe 1442363_at response, 1110012J17Rik (RIKEN cDNA 1110012J17 gene): 1.96
probe 1443536_at response, Slc7a11 (solute carrier family 7 (cationic amino acid transporter, y+ system), member 11): 0.40
probe 1445758_at response: 0.52
probe 1446791_at response, Pi15 (peptidase inhibitor 15): 0.48
probe 1447661_at response: 0.43
probe 1447845_s_at response, Vnn1 (vanin 1): 0.46
probe 1448364_at response, Ccng2 (cyclin G2): 2.01
probe 1448532_at response, Prl8a9 (prolactin family8, subfamily a, member 9): 2.67
probe 1448562_at response, Upp1 (uridine phosphorylase 1): 2.99
probe 1448613_at response, Ecm1 (extracellular matrix protein 1): 1.89
probe 1448617_at response, Cd53 (CD53 antigen): 1.99
probe 1448810_at response, Gne (glucosamine): 2.16
probe 1448855_at response, Rassf1 (Ras association (RalGDS/AF-6) domain family member 1): 2.05
probe 1448894_at response, Akr1b8 (aldo-keto reductase family 1, member B8): 1.99
probe 1448978_at response, Ngef (neuronal guanine nucleotide exchange factor): 3.24
probe 1449038_at response, Hsd11b1 (hydroxysteroid 11-beta dehydrogenase 1): 2.51
probe 1449125_at response, Tnfaip8l1 (tumor necrosis factor, alpha-induced protein 8-like 1): 2.10
probe 1449133_at response, Sprr1a (small proline-rich protein 1A): 2.78
probe 1449268_at response, Gfpt1 (glutamine fructose-6-phosphate transaminase 1): 2.36
probe 1449297_at response, Casp12 (caspase 12): 0.47
probe 1449334_at response, Timp3 (tissue inhibitor of metalloproteinase 3): 0.42
probe 1449367_at response, Trex2 (three prime repair exonuclease 2): 4.68
probe 1449408_at response, Jam2 (junction adhesion molecule 2): 2.08
probe 1449545_at response, Fgf18 (fibroblast growth factor 18): 3.38
probe 1449965_at response, Mcpt8 (mast cell protease 8): 2.61
probe 1450241_a_at response, Evi2a (ecotropic viral integration site 2a): 4.27
probe 1450262_at response, Clcf1 (cardiotrophin-like cytokine factor 1): 2.12
probe 1450276_a_at response, Scin (scinderin): 2.63
probe 1450376_at response, Mxi1 (Max interacting protein 1): 2.00
probe 1450430_at response, Mrc1 (mannose receptor, C type 1): 2.97
probe 1450501_at response, Itga2 (integrin alpha 2): 2.48
probe 1450791_at response, Nppb (natriuretic peptide precursor type B): 4.39
probe 1450976_at response, Ndrg1 (N-myc downstream regulated gene 1): 2.47
probe 1451006_at response, Xdh (xanthine dehydrogenase): 0.39
probe 1451308_at response, Elovl4 (elongation of very long chain fatty acids (FEN1/Elo2, SUR4/Elo3, yeast)-like 4): 2.21
probe 1451446_at response, Antxr1 (anthrax toxin receptor 1): 0.43
probe 1451501_a_at response, Ghr (growth hormone receptor): 2.25
probe 1451529_at response, Sgtb (small glutamine-rich tetratricopeptide repeat (TPR)-containing, beta): 2.47
probe 1451798_at response, Il1rn (interleukin 1 receptor antagonist): 2.76
probe 1452058_a_at response, Rnfl1 (ring finger protein 11): 2.02
probe 1452087_at response, Epsti1 (epithelial stromal interaction 1 (breast)): 2.32
probe 1452203_at response, Obfc2a (oligonucleotide/oligosaccharide-binding fold containing 2A): 1.90
probe 1452352_at response, Ctla2b (cytotoxic T lymphocyte-associated protein 2 beta): 2.30
probe 1452521_a_at response, Plaur (plasminogen activator, urokinase receptor): 2.09
probe 1453055_at response, Sema6d (sema domain, transmembrane domain (TM), and cytoplasmic domain, (semaphorin) 6D): 4.08
probe 1453278_a_at response, Clip4 (CAP-GLY domain containing linker protein family, member 4): 1.99
probe 1453345_at response, Nipal1 (NIPA-like domain containing 1): 3.92
probe 1454048_a_at response, 4931408A02Rik /// LOC630876 (RIKEN cDNA 4931408A02 gene /// similar to Protein C21orf63 homolog precursor): 0.46
probe 1454254_s_at response, 1600029D21Rik (RIKEN cDNA 1600029D21 gene): 2.18
probe 1454649_at response, Srd5a1 (steroid 5 alpha-reductase 1): 2.08
probe 1454699_at response, LOC100047324 /// Sesn1 (similar to Sesn1 protein /// sestrin 1): 0.37
probe 1454710_at response, Spink2 (serine peptidase inhibitor, Kazal type 2): 2.03
probe 1454780_at response, Galntl4 (UDP-N-acetyl-alpha-D-galactosamine:polypeptide N-acetylgalactosaminyltransferase-like 4): 0.44
probe 1454877_at response, Sertad4 (SERTA domain containing 4): 0.42
probe 1455104_at response, Mxd1 (MAX dimerization protein 1): 2.85
probe 1455241_at response, BC037703 (cDNA sequence BC037703): 0.50
probe 1455299_at response, Vgll3 (vestigial like 3 (Drosophila)): 0.44
probe 1455981_at response, Gm11263 /// Gm12242 /// Gm13654 /// Gm14138 /// Gm16406 /// Gm4796 /// Gm6476 /// Gm9143 /// LOC100043734 /// LOC236932 /// LOC623245 /// LOC639593 /// Rps6: 0.46
probe 1456150_at response, Jhdm1d (jumonji C domain-containing histone demethylase 1 homolog D (S. cerevisiae)): 1.99
probe 1456174_x_at response, Ndrg1 (N-myc downstream regulated gene 1): 2.00
probe 1456248_at response, Lce3f /// LOC630971 (late cornified envelope 3F /// hypothetical protein LOC630971): 2.45
probe 1456284_at response, Tmem171 (transmembrane protein 171): 1.95
probe 1456321_at response, Nipal1 (NIPA-like domain containing 1): 2.99
probe 1456725_x_at response, Ezr (ezrin): 0.49
probe 1456874_at response, Flrt2 (fibronectin leucine rich transmembrane protein 2): 0.54
probe 1457042_at response, AI256396 (EST AI256396): 0.52
probe 1457568_at response, Hnrnpd (heterogeneous nuclear ribonucleoprotein D): 0.50
probe 1457666_s_at response, Ifi202b (interferon activated gene 202B): 3.89
probe 1460220_a_at response, Csf1 (colony stimulating factor 1 (macrophage)): 0.38
probe 1460302_at response, Thbs1 (thrombospondin 1): 0.50
probe 1460472_at response, Cdk3 (cyclin-dependent kinase 3): 1.99
probe 1460521_a_at response, Obfc2a (oligonucleotide/oligosaccharide-binding fold containing 2A): 2.32
probe 1460695_a_at response, 2010111I01Rik (RIKEN cDNA 2010111I01 gene): 0.48
